Experimental data reported in patent US10590094B2, “Aminothiazole derivatives useful as antiviral agents” (Innovative Molecules GmbH, priority 2016, dated 2020).
In brackets after ≈: the same amount, converted by molar mass. Several values for one entry are separate records, joined by “and”; a condition that tells them apart may be missing. Equal values may be shown once.

Experiments:
HSV-1 [1] = test: activity selectivity assay, HSV-1 infected Vero cells (cytopathogenic effect, fluorescein diacetate readout); format: cell-based, Herpes simplex virus; settings: Human alphaherpesvirus 1
Description: (§1) HSV (HSV-1 Walki, HSV-1F, HSV-2 MS, HSV clinical isolates and HSV resistant strains) was cultivated on Vero cells (ATCC CCL-81) under the following conditions: The cells were grown in M199 medium (5% foetal calf serum, 2 mM glutamine, 100 IU/mL penicillin, 100 μg/mL streptomycin) in cell culture bottles at 37° C. and 5% CO2. The cells were splitted twice per week (1:4). For the infection, the medium was removed, the cells were washed with Hank's solution, detached using 0.05% trypsin, 0.02% EDTA and incubacted at a density of 4×10^5 cells/mL under the above-mentioned conditions for 24 h. The medium was removed and the virus solution was added at an m.o.i of <0.05 in a volume of 2 mL per 175 cm^2 surface. The infected cells were incubated at 37° C., 5% CO2 for 1 h and then the medium was made up to a volume of 50 mL per 175 cm^2 bottle. […] The virus was released by freezing (−80° C.) and thawing (37° C.) the infected cultures twice. Cell debris was removed by centrifugation (300 g, 10 min, 4° C.) and the supernatant was frozen in aliquots at −80° C.
(§2) The antiviral action was determined using a patented (DE10235967 and WO2004/015416) and subsequently published activity selectivity assay (G. Kleymann et al. J. Biomol. Screen. 2004; 9:578) in 96- or 384-well mictrotitre plates using various cell lines of neuronal, lymphoid and epithelial origin, such as, for example, Vero (african green monkey kidney cells), MEF (murine embryonal fibroblasts), HELF (human embryonal fibroblasts), NT2 (human neuronal cell line) or Jurkat (human lymphoid T-cell line). The relevant experimental details of the above mentioned patent and publication to evaluate the antiviral activity of the invention (disclosed compounds) are described below.
(§3) The effect of the substances on the spreading of the cytopathogenic effect was determined in comparison to the reference compound acyclovir-sodium (Zovirax™), a clinically approved anti-herpes chemotherapeutic.
(§4) The compounds (50 mM stock solution dissolved in DMSO) are examined on microtitre plates (for example 96-well flat bottom cell culture plates) at a final concentration of 250 to 0.5 μM or, in case of potent antiviral compounds, 250 to 0.5 nM in 2 to 4 replications (4 to 2 substances per plate). Also examined are toxic and cytostatic effects or precipitation of the compounds. After an appropriate dilution of the compounds (1:2) on the microtitre plate in the appropriate medium (100 μL), a suspension of cells (50 μL, 1×10^4 cells per well), such as, for example of Vero cells in M199 (medium 199 with 5% foetal calf serum, 2 mM glutamine and optionally 100 IU/ml penicillin and 100 μg/ml streptomycin) or of MEF or HELF cells in EMEM (Eagle's Minimum Essential Medium with 10% foetal calf serum, 2 mM glutamine and optionally 100 IU/mL penicillin and 100 μg/mL streptomycin), or of NT2- and Jurkat cells in DMEM (([…] glucose plus pyridoxin) with 10% foetal calf serum, 2 mM glutamine, 1 mM sodium pyruvate, non-essential amino acids and optionally 100 IU/mL penicillin and 100 μg/mL streptomycin) is added to each well and the cells in the relevant wells are infected with the appropriate amount of virus (HSV-1 or HSV-2 having an m.o.i (multiplicity of infection) of 0.0025 for Vero, HELF and MEF cells and an m.o.i. of 0.1 for NT2 and Jurkat cells). The plates are then incubated at 37° C. in a cell CO2 incubator (5% CO2) for several days. After this time, the cell lawn of, for example, Vero cells in the substance-free virus controls, starting from 25 infections centres, is completely destroyed or lysed by the cytopathogenic effect (CPE) of the Herpes viruses (100% CPE). The plates are initially evaluated visually using a microscope and then analysed using a fluorescent dye. To this end, the cell supernatant of all wells of the MTP is aspirated and the wells are filled with 250 μL PBS (phosphate buffered saline) wash solution. […]

HSV-2 = test: activity selectivity assay, HSV-2 infected Vero cells; format: cell-based, Herpes simplex virus; settings: Human alphaherpesvirus 2
Description: as §1, §2, §3, §4

HSV-1 ACV resistant = test: activity selectivity assay, ACV resistant HSV-1; format: cell-based, Herpes simplex virus; settings: Human alphaherpesvirus 1, read-out: IC50 (HSV-1 ACV resistant)
Description: as §1, §2, §3, §4

[2] = pharmacokinetics in male mice strain C57BL/6J; format: in vivo; settings: mouse
Description: Pharmcokinetic parameters were determined for Example 3 in male mice strain C57BL/6J at an intraveneous (i.v.) dose of 5 mg/kg (5% DMSO in heterologous plasma, 2.5 ml/kg) and an oral dose (p.o) of 10 mg/kg (DMSO/0.5% HPMC (5:95), 5 ml/kg). […] Significant concentrations in the brain of treated mice (2-3 μM, 1000 ng compound/g brain) were detected 6 h post administration at an oral dose of 10 mg/kg.

[3] = aqueous solubility (PBS, pH 7.4), shake flask; format: physicochemical
Description: The aqueous solubility (PBS, pH 7.4) was determined at Eurofins, Cerep, Panlabs according to C. A. Lipinski et al. Adv. Drug Del. Rev. 1997, 46:3. Measurement of the aqueous solubility was performed according to Lipinski, C. A. et al. (1997), Adv. Drug Del. Rev., 46: 3-26. The relevant information from the literature is described below. […] In addition, chromatographic purity (%) was defined as the peak area of the principal peak relative to the total integrated peak area in the HPLC chromatogram of the calibration standard.

Human Carboanhydrase II = Human Carboanhydrase II (Homo sapiens, UniProt P00918); test: carbonic anhydrase activity assay (pH indicator method); format: biochemical
Description: Carbonic anhydrase II activity and its respective inhibition was performed according to R. Iyer et al. J. Biomol. Screen.
A protocol for determination of the carbonic anhydrase enymatic activity at rt using the pH indicator method is described below:
1 μL inhibitor (50 mM stock solution in DMSO) is diluted to a final test concentration ranging from 100 μM down to 1 nM (or 1 μL water in controls) and incubated for 2 min with 0.5 to 2 EU human […] (180 U/mg) in 400 μL water and 200 μL phenol red indicator solution (20 mg/L). An enzymactic unit (EU) is defined as an amount which doubles the non catalyzed rate. […] The time to colour change (pH 7.2) is determined with a microchronometer or stop watch.
The percentage of inhibition is calculated as described below: (time to color change without enzyme time to color change with enzyme and inhibitor)/(time to color change without enzyme time to color change with enzyme).

HSV-1 [4] = test: HSV-1 intranasal infection mouse model, survival; format: in vivo; settings: Human alphaherpesvirus 1, inhaled or nasal, 120 h; female BALB/ABom mice, intranasal HSV-1, treatment for 5 days; read-out: ED50 (dose at which 50% of the infected animals survive)
Description: Animal experiments were performed according to patent WO2001/047904 or subsequent publications (U. A. K. Betz et al. Antimicrob. Agents Chemother. 2002; 46:1766 or G. Kleymann et al. Nat. Med. 2002; 8:392). The relevant experimental details of the above mentioned patent and publication to evaluate the antiviral activity of the invention (disclosed compounds) in-vivo (animal models) are described below.
6 week-old female mice, BALB/ABom strain were obtained from a commercial breeder.
The animals were anaesthetized with Et2O in a sealed glass vessel. 50 μL of a dilution of the virus stock (infection dose 5×10^4 PFU (Plaque forming units)) were introduced into the nose of the anaesthetized animals using a pipette. In 90 to 100% of the animals, this infection dose causes death by generalized infection with prominent respiratory and central-nervous symptoms on average after 5 to 8 days.
6 hours after infection animals were treated with doses of 0.1-150 mg/kg of body mass, 3 times per day at 7 am, 2 pm and 7 pm (tid) or 2 times per day at 7 am and 7 pm (bid) or once daily at 1 pm (od) for a period of 5 days. […] After the last administration, the animals were monitored further and the time of death was determined.

| SMILES | IC50 (HSV-1 [1]) [nM] | IC50 (HSV-2) [nM] | IC50 (HSV-1 ACV resistant) [nM] | other results |
| --- | --- | --- | --- | --- |
| Nc1nc2c(ncn2COCCO)c(=O)[nH]1 [Acyclovir, reference compound] | 500 to 3000 | 500 to 3000 | > 25000 |  |
| Cc1nc(N(C)C(=O)Cc2ccc(-c3cc(F)ccc3F)cc2)sc1S(=N)(N)=O (stereo not shown) [Example 3, 2-(2′,5′-Difluoro-[1,1′-biphenyl]-4-yl)-N-methyl-N-(4-methyl-5-sulfamimidoylthiazol-2-yl)acetamide] | 5 to 50 | 5 to 50 | 5 to 50 | concentration at 6 h ([2]; male, C57BL/6J, brain, mice, 6 h post administration, oral dose of 10 mg/kg): 2 µM to 3 µM and 1000 ng/g; bioavailability ([2]; plasma, oral, male C57BL/6J mice, 10 mg/kg p.o. vs 5 mg/kg i.v.): 94%; Tmax ([2]; plasma, po, male C57BL/6J mice, 10 mg/kg p.o.): 1 h; Cmax ([2]; plasma, po, male C57BL/6J mice, 10 mg/kg p.o., read-out: maximal plasma concentration (cmax)): 13.9 µM; half-life ([2]; plasma, male C57BL/6J mice, oral dose of 10 mg/kg, read-out: terminal half life (converted)): ~3.5 h; solubility at 24 h ([3]; PBS buffer, aqueous buffer, kinetic from dmso stock, pH 7.4, shake flask, 24 h incubation, RT, read-out: Solubility [μM] (PBS, pH 7.4, 200 μM Test concentration)): 16.2 µM (≈ 7.07 µg/mL); solubility in comparison to Example 87 (WO2001/047904) ([3]; pH 7.4): significantly increased solubility (at least one order of magnitude); IC50 (Human Carboanhydrase II): > 5 µM; carboanhydrase inhibition (IC50) (Human Carboanhydrase II; text statement before Table 2): no or reduced carbonic anhydrase inhibition; ED50 (HSV-1 [4]): < 10 mg/kg |
| Cc1nc(N(C)C(=O)Cc2ccc(-c3ccccn3)cc2)sc1S(=N)(N)=O (stereo not shown) [Example 3-1, N-methyl-N-(4-methyl-5-sulfamimdoylthiazol-2-yl)-2-(4-(pyridin-2-yl)phenyl)acetamide] | 5 to 50 | 5 to 50 | 5 to 50 |  |
| Cc1nc(N(C)C(=O)Cc2ccc(-c3cc(F)ccc3F)cc2)sc1[S+](C)[O-] (stereo not shown) [Example 4, 2-(2′,5′-Difluoro-[1,1′-biphenyl]-4-yl)-N-methyl-N-(4-methyl-5-(methylsulfinyl)thiazol-2-yl)acetamide] | 100 to 500 | 100 to 500 | 100 to 500 |  |
| Cc1nc(N(C)C(=O)Cc2ccc(-c3cc(F)ccc3F)cc2)sc1S(C)(=N)=O (stereo not shown) [Example 7, 2-(2′,5′-Difluoro-[1,1′-biphenyl]-4-yl)-N-methyl-N-(4-methyl-5-(S-methylsulfonimidoyl)thiazol-2-yl)acetamide] | 25 to 100 | 25 to 100 | 25 to 100 |  |
| Cc1nc(N(C)C(=O)Cc2ccc(-c3cc(F)ccc3F)cc2)sc1P(=O)(O)O [Example 9, (2-(2-(2′,5′-Difluoro-[1,1′-biphenyl]-4-yl)-N-methylacetamido)-4-methylthiazol-5-yl)phosphonic acid] | 25000 to 100000 | 25000 to 100000 | 25000 to 100000 |  |
| Cc1nc(N(C)C(=O)Cc2ccc(-c3cc(F)ccc3F)cc2)sc1S(=O)(=O)NC#N [Example 12, N-(5-(N-Cyanosulfamoyl)-4-methylthiazol-2-yl)-2-(2′,5′-difluoro-[1,1-biphenyl]-4-yl)-N-methylacetamide] | 100 to 1000 | 100 to 1000 | 100 to 1000 |  |
| Cc1nc(N(C)C(=O)Cc2ccc(-c3cc(F)ccc3F)cc2)sc1/S(C)=N\C#N (stereo not shown) [Example 13, N-[5-(N-Cyano-S-methyl-sulfinimidoyl)-4-methyl-thiazol-2-yl]-2-[4-(2,5-difluorophenyl)phenyl]-N-methyl-acetamide] | 300 to 3000 | 300 to 3000 | 300 to 3000 |  |
| Cc1nc(N(C)C(=O)Cc2ccc(-c3cc(F)ccc3F)cc2)sc1S(C)(=O)=NC#N (stereo not shown) [Example 14, N-[5-(N-Cyano-S-methyl-sulfonimidoyl)-4-methyl-thiazol-2-yl]-2-[4-(2,5-difluorophenyl)phenyl]-N-methyl-acetamide] | 1000 to 5000 | 1000 to 5000 | 1000 to 5000 |  |
| CSc1sc(N(C)C(=O)Cc2ccc(-c3cc(F)ccc3F)cc2)nc1C [Example P4b, 2-(2′,5′-Difluoro-[1,1′-biphenyl]-4-yl)-N-methyl-N-(4-methyl-5-(methylthio)thiazol-2-yl)acetamide] | 2000 to 6000 | 2000 to 6000 | 2000 to 6000 |  |
